Results on eleven compounds are retold here after patent publication US20260109699A1, “AZOLE DERIVATIVES AS SHP2 INHIBITORS” (IRBM S.P.A., priority 2022, published 2026).

In test [1] the test system is phospho-ERK1/2 (Thr202/Tyr204). The experiment in a line: Phospho-ERK cellular assay. Conditions: Homo sapiens; KYSE-520 cells, 2 h at 37° C, TR-FRET; read-out: pERK IC50. It counts as cell-based. The method, then:
ERK phosphorylation was detected using the “Advanced phospho-ERK1/2 (Thr202/Tyr204)” TR-FRET kit (Cisbio, Cat #64AERPEG/H), following the manufacturer reagents and instructions.
Briefly, 20.000/well KYSE-520 cells (DSMZ ACC 371) were plated in 6 μL RPMI-1640 (Invitrogen) growth medium, into 384 white low-volume high base TC microplates (Greiner). After an overnight incubation, cells were treated with DMSO serial diluted compounds and incubated for 2 h at 37° C. After incubation, 2 μL/well of 4×Lysis Buffer (Cisbio 64KL1FDF), were added and incubated with cells for 30 min on gentle shaking. Finally, lysates were added with 2 μL/well of Eu cryptate (donor) and D2 (acceptor) conjugated antibodies (as provided by the Cisbio kit #64AERPEG/H) diluted 1:100 in Detection Buffer (as provided by the Cisbio kit #64AERPEG/H). Plates were then sealed and incubated at rt in the dark. After an overnight incubation, the TR-FRET signal was detected on a suitable reader (Envision, PerkinElmer).
The lower the TR-FRET signal the higher the higher the SHP2 inhibition in cells.
The activity of each compound dilution was calculated as percentage between vehicle DMSO treated cells and no cells, 0% inhibition and 100% inhibition respectively. The percentage activity is fitted against the compound dilutions with a four-parameter logistic regression. The inflection point (i.e. the concentration at which half-maximal inhibition is achieved) is the IC50.
Legend: “+” indicates IC50 equal or higher than 0.5 μM; “++” indicates IC50 less than 0.5 μM and higher or equal to 0.1 μM; “+++” indicates IC50 less than 0.1 μM.

The target in test [2] is T1, SHP-2 enzyme (Met1-Leu525), SHP2wt (Homo sapiens, UniProt Q06124).
T1 construct: synthetized by Origene, Met1-Leu525, cat #TP750155; purchased Origene TP750155
T1 sequence (Q06124 1-525): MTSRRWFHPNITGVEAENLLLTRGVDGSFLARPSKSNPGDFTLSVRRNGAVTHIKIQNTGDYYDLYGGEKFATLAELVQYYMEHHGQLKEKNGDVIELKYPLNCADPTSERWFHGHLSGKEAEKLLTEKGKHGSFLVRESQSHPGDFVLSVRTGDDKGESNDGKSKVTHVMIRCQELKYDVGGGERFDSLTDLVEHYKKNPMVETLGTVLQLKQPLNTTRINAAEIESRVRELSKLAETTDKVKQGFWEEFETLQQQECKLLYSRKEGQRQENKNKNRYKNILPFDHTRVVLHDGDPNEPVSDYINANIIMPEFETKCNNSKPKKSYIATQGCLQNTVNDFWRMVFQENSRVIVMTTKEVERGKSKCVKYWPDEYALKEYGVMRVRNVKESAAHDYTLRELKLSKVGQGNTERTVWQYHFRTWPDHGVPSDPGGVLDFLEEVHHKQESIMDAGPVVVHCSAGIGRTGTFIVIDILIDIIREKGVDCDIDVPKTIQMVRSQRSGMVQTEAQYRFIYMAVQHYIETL
The test is described as follows: SHP2 inhibition enzymatic assay. It counts as biochemical. As to conditions: 0.5 nM SHP-2 activated by 500 nM IRS1 peptide, 75 μM DiFMUP substrate. Here is the method: The assay was performed as described in YP Chen et al, Nature (535) 2016. Assay volume of 20 μL/well was assembled in 384 well black polystyrene low-binding microplates (Greiner), using the following buffer: 60 mM HEPES pH 7.2, 75 mM NaCl, 75 mM KCl, 1 mM EDTA pH 8, 0.05% tween-20, 5 mM DTT. The SHP-2 enzyme (synthetized by Origene, Met1-Leu525, cat #TP750155) was used at a final concentration of 0.5 nM. The enzyme was activated by 500 nM IRS1 peptide (sequence: H2N-LN(pY)IDLDLV(dPEG8)LST(pY)ASINFQK-amide; Wang et al., iScience 25,104009, Apr. 15, 2022, https://doi.org/10.1016/j.isci.2022.104009) and incubated with 75 μM DiFMUP (Sigma) as substrate.
Briefly, DMSO serially diluted testing compounds were transferred to the bottom of the assay plate. SHP2 was then added together with the IRS1 peptide 30 min post incubation, the DiFMUP substrate was added to the reaction and incubated 30 min at rt. Finally 5 μL of 160 μM bpV (potassium bisperoxo[1,10-phenanthroline]oxovanadate [V], Sigma) were added to stop and quench the reaction. The fluorescence was detected by a microplate reader (Envision, PerkinElmer) according to the DiFMUP excitation and emission wavelength. The lower the fluorescence the higher the SHP2 inhibition.
The activity of each compound dilution was calculated as percentage of inhibition between vehicle (DMSO, 0% inhibition) and no enzyme (100% inhibition). The percentage inhibition is fitted against the compound dilutions with a four-parameter logistic regression. The inflection point (i.e. the concentration at which half-maximal inhibition is achieved) is the IC50.
Legend: A indicates IC50 less or equal to 0.05 μM; B indicates IC50 greater than 0.05 μM and lower or equal to 0.3 μM.

Each structure is given as a SMILES string.

Consider `N[C@@H]1c2ccnn2CC12CCN(c1cnc(Sc3ccc(F)cc3Cl)cn1)CC2` [Example 34, (S)-1-(5-((2-chloro-4-fluorophenyl)thio)pyrazin-2-yl)-4′H,6′H-spiro[piperidine-4,5′-pyrrolo[1,2-b]pyrazol]-4′-amine], for which the IC50 in test [1] was below 0.1 µM; in test [2] it was at most 0.05 µM.

With `Cc1nc(N2CCC3(CC2)Cn2nccc2[C@H]3N)cnc1Sc1cccc(Cl)c1Cl` [Example 6, (S)-1-(5-((2,3-dichlorophenyl)thio)-6-methylpyrazin-2-yl)-4′H,6′H-spiro[piperidine-4,5′-pyrrolo[1,2-b]pyrazol]-4′-amine], the IC50 in test [1] was 0.1 to 0.5 µM; in test [2], at most 0.05 µM.

For `N[C@@H]1c2ccnn2CC12CCN(c1cnc(Sc3cccc(Cl)c3)cn1)CC2` [Example 20, (S)-1-(5-((3-chlorophenyl)thio)pyrazin-2-yl)-4′H,6′H-spiro[piperidine-4,5′-pyrrolo[1,2-b]pyrazol]-4′-amine], the IC50 in test [1] was below 0.1 µM; in test [2], at most 0.05 µM.

In the case of `Cc1c(Cl)cccc1-c1ncc2c(N3CCC4(CC3)Cn3nccc3[C@H]4N)nccn12` [Example 15, (S)-1-(3-(3-chloro-2-methylphenyl)imidazo[1,5-a]pyrazin-8-yl)-4′H,6′H-spiro[piperidine-4,5′-pyrrolo[1,2-b]pyrazol]-4′-amine], the results for the IC50 in test [1] and in test [2] were above 0.5 µM and at most 0.05 µM, respectively.

As to `N[C@@H]1c2ccnn2CC12CCN(c1cnc(Sc3c(F)cccc3F)cn1)CC2` [Example 75, (S)-1-(5-((2,6-difluorophenyl)thio)pyrazin-2-yl)-4′H,6′H-spiro[piperidine-4,5′-pyrrolo[1,2-b]pyrazol]-4′-amine], the values for the IC50 in test [1] and in test [2] were below 0.1 µM and at most 0.05 µM, respectively.

`Cc1nc(Sc2cccc(Cl)c2Cl)cnc1N1CCC2(CC1)Cn1nccc1[C@H]2N` [Example 17, (S)-1-(5-((2,3-dichlorophenyl)thio)-3-methylpyrazin-2-yl)-4′H,6′H-spiro[piperidine-4,5′-pyrrolo[1,2-b]pyrazol]-4′-amine]: the values for the IC50 in test [1] and in test [2] were 0.1 to 0.5 µM and at most 0.05 µM, respectively.

For `N[C@@H]1c2ccnn2CC12CCN(c1cnc(Sc3ccccc3)cn1)CC2` [Example 24, (S)-1-(5-(phenylthio)pyrazin-2-yl)-4′H,6′H-spiro[piperidine-4,5′-pyrrolo[1,2-b]pyrazol]-4′-amine], the IC50 in test [1] is below 0.1 µM; in test [2], at most 0.05 µM.

Regarding `N[C@@H]1c2ccnn2CC12CCN(c1cnc(Sc3ccnc(C(F)(F)F)c3Cl)cn1)CC2` [Example 54, (S)-1-(5-((3-chloro-2-(trifluoromethyl)pyridin-4-yl)thio)pyrazin-2-yl)-4′H,6′H-spiro[piperidine-4,5′-pyrrolo[1,2-b]pyrazol]-4′-amine], the values for the IC50 in test [1] and in test [2] were below 0.1 µM and at most 0.05 µM, respectively.

For the compound `N[C@@H]1c2ccnn2CC12CCN(c1nccn3c(-c4cccc(F)c4Cl)ncc13)CC2` [Example 14, (S)-1-(3-(2-chloro-3-fluorophenyl)imidazo[1,5-a]pyrazin-8-yl)-4′H,6′H-spiro[piperidine-4,5′-pyrrolo[1,2-b]pyrazol]-4′-amine], the IC50 in test [1] is 0.1 to 0.5 µM; in test [2] it was at most 0.05 µM.

Take `N[C@@H]1c2ccnn2CC12CCN(c1cnc(Sc3ccc(F)cc3F)cn1)CC2` [Example 32, (S)-1-(5-((2,4-difluorophenyl)thio)pyrazin-2-yl)-4′H,6′H-spiro[piperidine-4,5′-pyrrolo[1,2-b]pyrazol]-4′-amine]: the 50% inhibitory concentration (IC50) in test [1] was below 0.1 µM; in test [2], at most 0.05 µM.

Take `COc1ccc(Sc2cnc(N3CCC4(CC3)Cn3nccc3[C@H]4N)cn2)c(F)c1` [Example 64, (S)-1-(5-((2-fluoro-4-methoxyphenyl)thio)pyrazin-2-yl)-4′H,6′H-spiro[piperidine-4,5′-pyrrolo[1,2-b]pyrazol]-4′-amine]: the half-maximal inhibitory concentration (IC50) is below 0.1 µM in test [1] and at most 0.05 µM in test [2].
